ChEMBL document CHEMBL5050844 (2019)

Assays:
[1] = Induction of anti-CD3/CD28 antibodies-stimulated human T cell activation at 4 uM assessed fold increase in IL-2 secretion measured by ELISA assay; type: functional, T cell line
[2] = Induction of anti-CD3 antibodies-stimulated human CD8+ T cell activation in immunocompetent mouse assessed fold increase in CD25 expression at 45 mg/kg, ip administered twice a day; type: functional; note: reference of the scale not given here
[3] = Induction of activation of human CD56+ CD3- NK cells co-cultured with human K562 cells in 5:1 ratio and assessed as increase in IFN-gamma secretion at 10 uM measured by ELISA assay; type: functional, Natural killer cell
[4] = Induction of anti-CD3 antibodies-stimulated human CD4+ T cell activation in immunocompetent mouse assessed fold increase in CD25 expression at 45 mg/kg, ip administered twice a day; type: functional; note: reference of the scale not given here
[5] = Induction of anti-CD3 antibodies-stimulated human T cell activation at 1 uM assessed fold increase in IL-2 secretion measured by ELISA assay; type: functional, T cell line; note: reference of the scale not given here
[6] = Induction of activation of human CD56+ CD3- NK cells co-cultured with human K562 cells in 5:1 ratio and assessed as increase in TNF-alpha secretion at 10 uM measured by ELISA assay; type: functional, Natural killer cell
[7] = Induction of anti-CD3/CD28 antibodies-stimulated human T cell activation at 0.3 uM assessed fold increase in CD25 expression measured by ELISA assay; type: functional, T cell line
[8] = Induction of anti-CD3 antibodies-stimulated human T cell activation at 8 uM assessed fold increase in IL-2 secretion measured by ELISA assay; type: functional, T cell line; note: reference of the scale not given here
[9] = Induction of activation of human CD56+ CD3- NK cells co-cultured with human K562 cells in 1:1 ratio and assessed as increase in MIP1beta secretion at 10 uM measured by ELISA assay; type: functional, Natural killer cell
[10] = Induction of anti-CD3/CD28 antibodies-stimulated human T cell activation at 1 uM assessed fold increase in CD25 expression measured by ELISA assay; type: functional, T cell line
[11] = Induction of anti-CD3 antibodies-stimulated human T cell activation at 8 uM assessed fold increase in CD25 expression measured by ELISA assay; type: functional, T cell line; note: reference of the scale not given here
[12] = Induction of anti-CD3/CD28 antibodies-stimulated human T cell activation at 4 uM assessed fold increase in CD25 expression measured by ELISA assay; type: functional, T cell line
[13] = Induction of activation of human CD56+ CD3- NK cells co-cultured with human K562 cells in 5:1 ratio and assessed as increase in MIP1beta secretion at 1 uM measured by ELISA assay; type: functional, Natural killer cell
[14] = Induction of activation of human CD56+ CD3- NK cells co-cultured with human K562 cells in 1:1 ratio and assessed as increase in TNF-alpha secretion at 1 uM measured by ELISA assay; type: functional, Natural killer cell
[15] = Induction of anti-CD3 antibodies-stimulated human CD8+ T cell activation in immunocompetent mouse assessed fold increase in CD25 expression at 180 mg/kg, po administered twice a day; type: functional; note: reference of the scale not given here
[16] = Induction of activation of human CD56+ CD3- NK cells co-cultured with human K562 cells in 5:1 ratio and assessed as increase in TNF-alpha secretion at 1 uM measured by ELISA assay; type: functional, Natural killer cell
[17] = Induction of activation of human CD56+ CD3- NK cells co-cultured with human K562 cells in 1:1 ratio and assessed as increase in IFN-gamma secretion at 10 uM measured by ELISA assay; type: functional, Natural killer cell
[18] = Induction of anti-CD3 antibodies-stimulated human CD4+ T cell activation in immunocompetent mouse assessed fold increase in CD25 expression at 45 mg/kg, po administered twice a day; type: functional; note: reference of the scale not given here
[19] = Induction of activation of human CD56+ CD3- NK cells co-cultured with human K562 cells in 5:1 ratio and assessed as increase in IFN-gamma secretion at 1 uM measured by ELISA assay; type: functional, Natural killer cell
[20] = Induction of anti-CD3 antibodies-stimulated human CD4+ T cell activation in immunocompetent mouse assessed fold increase in CD25 expression at 180 mg/kg, po administered twice a day; type: functional; note: reference of the scale not given here
[21] = biological target: T1, E3 ubiquitin-protein ligase CBL-B (Homo sapiens, UniProt Q13191); experiment: Binding affinity towards N-terminal biotinylated Avi-tagged human CBL-B (36 to 427 residues) measured by surface plasmon resonance assay
T1 sequence (Q13191 whole entry, the tested form may be a part): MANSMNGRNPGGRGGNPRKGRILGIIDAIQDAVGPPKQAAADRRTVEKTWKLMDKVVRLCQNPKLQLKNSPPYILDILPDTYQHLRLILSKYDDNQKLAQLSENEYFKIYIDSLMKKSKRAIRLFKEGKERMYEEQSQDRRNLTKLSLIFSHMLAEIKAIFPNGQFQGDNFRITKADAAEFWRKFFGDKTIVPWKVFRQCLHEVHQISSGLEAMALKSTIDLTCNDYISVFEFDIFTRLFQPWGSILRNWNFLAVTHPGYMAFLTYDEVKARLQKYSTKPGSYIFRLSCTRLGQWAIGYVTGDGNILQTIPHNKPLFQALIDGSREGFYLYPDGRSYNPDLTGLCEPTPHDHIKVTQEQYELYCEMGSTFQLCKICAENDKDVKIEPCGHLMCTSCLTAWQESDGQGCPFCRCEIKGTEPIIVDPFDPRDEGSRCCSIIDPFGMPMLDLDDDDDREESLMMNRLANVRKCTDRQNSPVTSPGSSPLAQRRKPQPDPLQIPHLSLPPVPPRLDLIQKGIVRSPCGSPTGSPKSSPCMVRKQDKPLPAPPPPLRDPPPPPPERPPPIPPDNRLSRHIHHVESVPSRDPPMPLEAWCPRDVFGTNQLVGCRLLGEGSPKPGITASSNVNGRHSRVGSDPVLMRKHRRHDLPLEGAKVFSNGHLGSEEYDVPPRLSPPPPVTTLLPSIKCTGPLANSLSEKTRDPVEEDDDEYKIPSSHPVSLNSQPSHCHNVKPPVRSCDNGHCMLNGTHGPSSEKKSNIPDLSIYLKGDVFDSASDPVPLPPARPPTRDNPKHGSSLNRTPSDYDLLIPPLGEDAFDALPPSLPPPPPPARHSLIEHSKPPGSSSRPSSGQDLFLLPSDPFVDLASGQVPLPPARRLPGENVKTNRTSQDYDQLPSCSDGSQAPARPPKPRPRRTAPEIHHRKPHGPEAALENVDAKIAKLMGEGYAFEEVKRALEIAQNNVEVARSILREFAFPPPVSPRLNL

[22] = Induction of anti-CD3/CD28 antibodies-stimulated human T cell activation at 0.3 uM assessed fold increase in IL-2 secretion measured by ELISA assay; type: functional, T cell line
[23] = Induction of activation of human CD56+ CD3- NK cells co-cultured with human K562 cells in 1:1 ratio and assessed as increase in IFN-gamma secretion at 1 uM measured by ELISA assay; type: functional, Natural killer cell
[24] = Induction of anti-CD3 antibodies-stimulated human CD8+ T cell activation in immunocompetent mouse assessed fold increase in CD25 expression at 135 mg/kg, po administered twice a day; type: functional; note: reference of the scale not given here
[25] = Induction of activation of human CD56+ CD3- NK cells co-cultured with human K562 cells in 1:1 ratio and assessed as increase in TNF-alpha secretion at 10 uM measured by ELISA assay; type: functional, Natural killer cell
[26] = Induction of activation of human CD56+ CD3- NK cells co-cultured with human K562 cells in 1:1 ratio and assessed as increase in MIP1beta secretion at 1 uM measured by ELISA assay; type: functional, Natural killer cell
[27] = biological target: T1, E3 ubiquitin-protein ligase CBL-B; experiment: Inhibition of N-terminal Avi-tagged human CBL-B (36 to 427 residues) incubated with 60 nM Src kinase for 1.5 hrs followed by incubation with fluorescently labeled UbcH5B-Ub for 1 hr and measured by TR-FRET assay; type: single protein
[28] = Induction of anti-CD3 antibodies-stimulated human CD8+ T cell activation in immunocompetent mouse assessed fold increase in CD25 expression at 90 mg/kg, po administered twice a day; type: functional; note: reference of the scale not given here
[29] = Induction of anti-CD3/CD28 antibodies-stimulated human T cell activation at 1 uM assessed fold increase in IL-2 secretion measured by ELISA assay; type: functional, T cell line
[30] = Induction of anti-CD3 antibodies-stimulated human T cell activation at 1 uM assessed fold increase in CD25 expression measured by ELISA assay; type: functional, T cell line; note: reference of the scale not given here
[31] = Induction of anti-CD3 antibodies-stimulated human CD4+ T cell activation in immunocompetent mouse assessed fold increase in CD25 expression at 90 mg/kg, po administered twice a day; type: functional; note: reference of the scale not given here
[32] = Induction of anti-CD3 antibodies-stimulated human CD4+ T cell activation in immunocompetent mouse assessed fold increase in CD25 expression at 135 mg/kg, po administered twice a day; type: functional; note: reference of the scale not given here
[33] = Induction of activation of human CD56+ CD3- NK cells co-cultured with human K562 cells in 5:1 ratio and assessed as increase in MIP1beta secretion at 10 uM measured by ELISA assay; type: functional, Natural killer cell
[34] = Induction of anti-CD3 antibodies-stimulated human CD4+ T cell activation in immunocompetent mouse assessed fold increase in CD25 expression at 90 mg/kg, ip administered twice a day; type: functional; note: reference of the scale not given here
[35] = Induction of anti-CD3 antibodies-stimulated human CD8+ T cell activation in immunocompetent mouse assessed fold increase in CD25 expression at 90 mg/kg, ip administered twice a day; type: functional; note: reference of the scale not given here

| SMILES | fold change (FC) [1] | fold change (FC) [3] | fold change (FC) [5] | fold change (FC) [6] | fold change (FC) [7] | fold change (FC) [8] | fold change (FC) [9] | fold change (FC) [10] | fold change (FC) [11] | fold change (FC) [12] | fold change (FC) [13] | fold change (FC) [14] | fold change (FC) [16] | fold change (FC) [17] | fold change (FC) [19] | fold change (FC) [22] | fold change (FC) [23] | fold change (FC) [25] | fold change (FC) [26] | fold change (FC) [29] | other results |
| --- | --- | --- | --- | --- | --- | --- | --- | --- | --- | --- | --- | --- | --- | --- | --- | --- | --- | --- | --- | --- | --- |
| C[C@H](Cc1nncn1C)c1cccc(NC(=O)c2cc(C3CC3)cc(C(F)(F)F)n2)c1 | >=7.5 | >=5 | >=0.201 | 2.01 | 1.31 | >=0.201 | 1.01 | 1.51 | >=1.001 | 1.51 | 1.01 | 2.01 | 2.01 | 2.01 | 2.01 | 2.51 | 2.01 | 1.01 | 1.01 | 5 | fold change (FC) [2]: 1; fold change (FC) [4]: 1.51; fold change (FC) [15]: 1; fold change (FC) [18]: 1; fold change (FC) [20]: 1; Kd [21]: < 100 nM; fold change (FC) [24]: 1; IC50 [27]: < 100 nM; fold change (FC) [28]: 1; fold change (FC) [30]: >=1.001; fold change (FC) [31]: 1; fold change (FC) [32]: 2.01; fold change (FC) [33]: 1.01 |
| C[C@H](Cc1nncn1C)c1cccc(NC(=O)c2ccnc(C(F)(F)F)n2)c1 | >=7.5 | >=5 | >=0.201 | >=5 | 1.51 | >=0.201 | 2.01 | >=1.76 | >=1.001 | >=1.76 | 1.01 | <=1 | 2.01 | 2.01 | 2.01 | 1.01 | 1.01 | 2.01 | 1.01 | 2.51 | fold change (FC) [34]: 1.51; fold change (FC) [35]: 1; fold change (FC) [30]: 0.801; fold change (FC) [33]: 2.01 |
